Data: patent US20070196491A1, “DRUG DELIVERY SYSTEMS COMPRISING WEAKLY BASIC DRUGS AND ORGANIC ACIDS” (EURAND, INC., priority 2006, published 2007)
Converted amounts (≈) assume the structure as drawn. Where a name gives a salt, the structure may show the parent alone. Read-outs that look alike come from different tables or passages of the source.

Columns and labels:
[1] = intestinal regions; cited from earlier work
[2] = cited from earlier work
[3] = Solubilities of weakly basic drugs in organic acid buffers
[4] = pH 2.14

SMILES: COc1ccccc1OCCNCC(O)COc1cccc2[nH]c3ccccc3c12 (racemic) [Carvedilol]
- solubility (physchem; pH 2.12, aqueous buffer): 2510 µg/mL (≈ 6170 µM)
- solubility (physchem; pH 2.28, aqueous buffer): 1360 µg/mL (≈ 3350 µM)
- solubility (physchem; pH 2.54, aqueous buffer): 731 µg/mL (≈ 1800 µM)
- solubility (physchem; pH 2.94, aqueous buffer): 508 µg/mL (≈ 1250 µM)
- solubility (physchem; pH 3.64, aqueous buffer): 121 µg/mL (≈ 298 µM)
- solubility (physchem; pH 5.46, aqueous buffer): 105 µg/mL (≈ 258 µM)
- solubility (physchem; pH 5.9, aqueous buffer): 28 µg/mL (≈ 68.9 µM)
- in vivo absorption within the intestine, decreasing order [1]: jejunum>ileum>colon
- aqueous solubility ([2]; above a pH of 9): < 1 µg/mL
- aqueous solubility ([2]; at a pH 5): about 100 μg/mL
- aqueous solubility ([2]; at a pH of 7): about 23 μg/mL

SMILES: O=C1CN=C(c2ccccc2Cl)c2cc([N+](=O)[O-])ccc2N1 [Clonazepam]
- Solubility (mg/mL) of Clonazepam in Fumaric Acid ([3]; pH of buffer 4.8): 0.0095 mg/mL

SMILES: Cc1nccn1CC1CCc2c(c3ccccc3n2C)C1=O (stereo not shown) [Ondansetron Hydrochloride, Ondansetron hydrochloride]
- Solubility of Ondansetron Hydrochloride [4]: 27000 µg/mL
- Solubility of Ondansetron Hydrochloride ([3]; fumaric acid 0.0025 mg/mL, start pH 4.15, end pH 4.33): 26100 µg/mL
- Solubility of Ondansetron Hydrochloride ([3]; fumaric acid 0.01 mg/mL, start pH 3.64, end pH 4.05): 26100 µg/mL
- Solubility of Ondansetron Hydrochloride ([3]; fumaric acid 0.25 mg/mL, start pH 2.79, end pH 2.75): 26200 µg/mL
- Solubility of Ondansetron Hydrochloride ([3]; fumaric acid 1 mg/mL, start pH 2.48, end pH 2.40): 26100 µg/mL
- Solubility of Ondansetron Hydrochloride ([3]; fumaric acid 5 mg/mL, start pH 2.13, end pH 2.01): 26900 µg/mL
- solubility (in words) ([2]; at a pH of 6.8): practically insoluble
- solubility (in words) ([2]; at acidic pHs): fairly soluble

SMILES: OCCN(CCO)c1nc(N2CCCCC2)c2nc(N(CCO)CCO)nc(N3CCCCC3)c2n1 [Dipyridamole]
- solubility (in words) ([2]; in dilute acids): soluble
- solubility (in words) ([2]; in water, neutral and alkaline buffers): practically insoluble
